# In US20250011296A1, “MODULATORS OF MOLECULAR TARGETS EXPRESSED IN METABOLIC AND INFLAMMATORY DISORDERS” (Ohio State Innovation Foundation, priority 2021, published 2025):
# “Also recorded” adds a separate entry of the source. Read-outs that look alike come from different tables or passages of the source.
# How the values were obtained:
# PPAR-γ = biological target: T1, PPAR-γ (Homo sapiens, UniProt P37231); experiment: PPAR-γ ELISA assay (PPAR-α,γ,δ Complete Transcription Factor Assay Kit; CCD-112CoN or Hela cells, nuclear extracts); type: cell-based
# T1 construct: endogenous in cells; host or cells: CCD-112CoN normal colon cells or HeLa cells (ATCC), nuclear extract
# T1 sequence (P37231 1-505): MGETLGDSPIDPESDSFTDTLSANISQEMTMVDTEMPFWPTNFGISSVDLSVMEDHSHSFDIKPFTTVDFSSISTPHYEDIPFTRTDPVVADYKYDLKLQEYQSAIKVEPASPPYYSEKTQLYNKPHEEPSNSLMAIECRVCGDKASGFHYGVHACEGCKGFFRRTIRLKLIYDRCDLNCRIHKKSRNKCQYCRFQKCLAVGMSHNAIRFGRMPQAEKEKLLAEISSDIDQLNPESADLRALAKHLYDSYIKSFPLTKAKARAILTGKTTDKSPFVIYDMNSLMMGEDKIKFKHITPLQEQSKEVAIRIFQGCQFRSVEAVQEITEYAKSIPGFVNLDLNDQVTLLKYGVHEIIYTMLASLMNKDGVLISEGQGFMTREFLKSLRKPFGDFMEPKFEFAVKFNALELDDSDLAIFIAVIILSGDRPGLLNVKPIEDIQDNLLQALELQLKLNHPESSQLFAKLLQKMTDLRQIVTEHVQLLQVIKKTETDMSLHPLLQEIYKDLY
# Description: To evaluate the ability of natural product extracts and compounds to induce specific binding of PPAR-γ transcription factor in nuclear extracts to immunosorbed peroxisome proliferator response element, the PPAR-α,γ,δ Complete Transcription Factor Assay Kit (Cayman Chemical Company) was used according to the kit protocol. 303 CCD-112CoN normal colon cells or Hela cells (ATCC) were treated with mace extracts or isolated compounds for 24 h, nuclear extracts were harvested using the NE-PER kit (Pierce Biotechnology), and protein content equilibrated using the Pierce BCA Protein Assay kit (Pierce Biotechnology). Specific binding was detected through quantification of absorptivity at 630 nm in a BioTek uQuant microplate reader (BioTek Instruments, Inc.). […] Licarin A derivatives 45-48 were screened through the panel of in vitro assays to evaluate their potential as antidiabetic compound leads. […] Methods for the assay were as described above.
# NFκB = biological target: T2, NFκB (Homo sapiens, UniProt Q04206); experiment: NFκB assay (EZ-Detect Transcription Factor Assay kit; TNF-α-treated HeLa cells, nuclear extracts); type: cell-based
# T2 construct: endogenous in cells; host or cells: HeLa cells (ATCC), nuclear extract
# T2 sequence (Q04206 whole entry): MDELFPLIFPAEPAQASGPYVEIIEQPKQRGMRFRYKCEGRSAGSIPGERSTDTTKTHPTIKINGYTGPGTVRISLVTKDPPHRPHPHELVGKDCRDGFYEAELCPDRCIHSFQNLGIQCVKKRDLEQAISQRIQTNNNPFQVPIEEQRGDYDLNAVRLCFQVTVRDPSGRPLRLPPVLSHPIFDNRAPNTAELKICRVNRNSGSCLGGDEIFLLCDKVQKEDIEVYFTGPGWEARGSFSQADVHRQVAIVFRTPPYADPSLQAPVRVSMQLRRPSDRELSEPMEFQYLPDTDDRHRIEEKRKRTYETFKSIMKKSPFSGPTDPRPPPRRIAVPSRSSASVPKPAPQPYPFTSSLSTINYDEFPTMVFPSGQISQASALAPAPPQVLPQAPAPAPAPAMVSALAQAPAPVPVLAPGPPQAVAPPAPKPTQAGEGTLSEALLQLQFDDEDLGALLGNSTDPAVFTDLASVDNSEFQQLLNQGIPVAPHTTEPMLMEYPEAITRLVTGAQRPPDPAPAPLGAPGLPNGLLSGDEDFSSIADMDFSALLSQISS
# Description: To assess the ability of natural product extracts and compounds to inhibit the specific binding of activated NFκB transcription factor to the biotinylated consensus sequence, the EZ-Detect™ Transcription Factor Assay kit (Pierce Biotechnology) was used according to the kit manual and established protocol. HeLa cells (ATCC) were treated with each test sample and TNF-α, nuclear extracts harvested using the NE-PER kit (Pierce Biotechnology), and protein content equilibrated using the Pierce BCA Protein Assay kit (Pierce Biotechnology). Specific binding was detected through quantification of chemiluminescent signal in a plate reader (FLUOstar Optima, BMG Labtechnologies GmbH, Inc.).
# PPAR-γ expression = experiment: Larval diabetic zebrafish assay, Western blot of PPAR-γ; type: in vivo; settings: diabetic zebrafish larvae, 10 μM
# Description: Western blot analysis of zebrafish expression levels for glycated hemoglobin, metabolic enzymes, and molecular targets NFκB and PPAR-γ was performed to evaluate potential lead improvement and to discover possible mechanisms of action.
# Wild-type zebrafish were sorted into 24-well microplates with 10 fish per well for a four-phase treatment cycle. At 72 hpf, type 2 diabetes was induced by administering 0.5 mg/mL alloxan in fish water for percutaneous absorption. […] At 78 hpf, the incubation solution was changed to 10 mg/ml D-glucose for 30 minutes, followed by a phase-four rinse in fresh system w Following the four-phase treatment cycle, zebrafish treatment groups were snap frozen in microcentrifuge tubes on dry ice, stored overnight at −80° C., thawed, and homogenized with 2 μL PBS per animal. Following centrifugation (60 minutes at 4° C. and 17,000 rpm), protein content of the homogenate supernatant was determined using the Pierce BCA Protein Assay kit (Pierce Biotechnology). Homogenates were analyzed by Western blot with equal amounts of total protein (20 μg) in each sample and using 4×LDS loading buffer (NuPAGE Life Technologies).
# (§1) Electrophoresis was performed with NuPAGE MES SDS Running Buffer and using the XCell SureLock Mini-Cell Electrophoresis System (Life Technologies). Proteins separated on the gel were transferred to a PVDF membrane using TBST buffer. The blots were blocked in 3% BSA in TBST and subsequently probed overnight with primary antibodies (1:1000 in 1% BSA in TBST) against each target of interest. Following TBST rinses, secondary HRP-conjugated antibodies (1:2000) were applied to the membrane for 60 minutes. The HRP conjugated antibodies were detected using SuperSignal West Femto chemiluminescent substrate (Pierce Biotechnology) and immunoblot images were captured using the luminometer and Lumi Analyst 3.0 software.
# (§2) Band densities were determined using ImageJ Gel Analysis to determine expression levels of each protein of interest. Expression levels of HbA1C, PPAR-γ, and NFκB were organized into a bar graphs (FIG. 5) with band densities calculated in comparison to the housekeeping gene β-actin, normalized to the untreated diabetic group (B) of zebrafish. […].
# [1] = test system: HbA1C (glycated hemoglobin) expression; experiment: Larval diabetic zebrafish assay, Western blot of HbA1C; type: in vivo; settings: diabetic zebrafish larvae, 10 μM
# Description: Following isolation, derivatization, and analysis of compounds 41-48 through the in vitro panel of assays, the mace natural products and licarin A derivatives were investigated in the larval diabetic zebrafish assay for potential antidiabetic activity. Western blot analysis of zebrafish expression levels for glycated hemoglobin, metabolic enzymes, and molecular targets NFκB and PPAR-γ was performed to evaluate potential lead improvement and to discover possible mechanisms of action.
# Wild-type zebrafish were sorted into 24-well microplates with 10 fish per well for a four-phase treatment cycle. At 72 hpf, type 2 diabetes was induced by administering 0.5 mg/mL alloxan in fish water for percutaneous absorption. After three hours of alloxan treatment, phase two of the treatment cycle was initiated by administering 10 μM doses of natural product compounds 41-43 (FIG. 4) or derivatives 45-48 (FIG. 6) with 0.01% DMSO in system water. At 78 hpf, the incubation solution was changed to 10 mg/ml D-glucose for 30 minutes, followed by a phase-four rinse in fresh system w Following the four-phase treatment cycle, zebrafish treatment groups were snap frozen in microcentrifuge tubes on dry ice, stored overnight at −80° C., thawed, and homogenized with 2 μL PBS per animal. Following centrifugation (60 minutes at 4° C. and 17,000 rpm), protein content of the homogenate supernatant was determined using the Pierce BCA Protein Assay kit (Pierce Biotechnology). Homogenates were analyzed by Western blot with equal amounts of total protein (20 μg) in each sample and using 4×LDS loading buffer (NuPAGE Life Technologies). The immunoblot samples were heated at 95° C. for 5 minutes and loaded onto NuPAGE Bis-Tris 4-12% gradient SDS-PAGE gels.
# as §1, §2
# [2] = Table 20 summary, read-out: NFκBIC50
# [3] = preliminary Western blot (FIG. 4/5)
# [4] = preliminary Western blot (FIG. 5), not in replicate
"PPAR-γ % activation (PPAR-γ; Table 14, isolates at 50 μg/mL) [%]","PPAR-γ % activation (PPAR-γ; Table 20 summary, 50 μg/mL) [%]",IC50 (NFκB; [2]) [nM],IC50 (NFκB; in vitro NFκB assay) [nM],"PPAR-γ activity, % as active/effective as positive control rosiglitazone (PPAR-γ; 50 μg/mL) [%]","PPAR-γ activity in vitro (PPAR-γ; preliminary screening, 50 μg/mL)","IC50 (NFκB; Table 13, tested at 50, 5, 0.5 and 0.05 μg/mL) [nM]",Structure (SMILES),PPAR-γ expression (band density) (PPAR-γ expression; [3]),"HbA1C expression (band density) [1, 4]",PPAR-γ expression (band density) (PPAR-γ expression; duplicate Western blot (FIG. 8)),HbA1C expression (band density) ([1]; duplicate Western blot (FIG. 7))
45,45,479,475,–,–,–,"C/C=C/c1cc(OC)c2c(c1)[C@H](C)[C@@H](c1ccc3c(c1)OCO3)O2 [Compound 41, licarin B]",did not upregulate PPAR-γ expression,HbA1C levels even lower than those treated with the thiazolidinedione rosiglitazone; also recorded: excellent hypoglycemic effect,–,–
81,81,30.6,30.6,81,moderate PPAR-Y activity,30.6,"C/C=C/c1cc(OC)c2c(c1)[C@H](C)[C@@H](c1ccc(O)c(OC)c1)O2 [Compound 42, licarin A]",greater PPAR-γ expression that 41,least effective of the three natural products at reducing HbA1C expression,reliably intermediate between the rosiglitazone-treated and untreated diabetic groups,most effective test samples for decreasing HbA1C
